Data as given in the kinase profiling compilation of Christmann-Franck et al. (2016).

How the values were obtained:
Test in all cases: radiometric filter-binding kinase assay, Kinase HotSpot
Settings in all cases: compound 0.5 µM; ATP 10 µM
[1] = molecular target: ACVR1B (human) (UniProt P36896)
[2] = molecular target: ADRBK2 (human) (UniProt P35626)
[3] = molecular target: AKT1 (human) (UniProt P31749)
[4] = molecular target: BLK (human) (UniProt P51451)
[5] = molecular target: BRSK2 (human) (UniProt Q8IWQ3)
[6] = molecular target: CAMK2D (human) (UniProt Q13557)
[7] = molecular target: CAMK2G (human) (UniProt Q13555)
CAMK2G (human), sequence (Q13555 whole entry, looked up): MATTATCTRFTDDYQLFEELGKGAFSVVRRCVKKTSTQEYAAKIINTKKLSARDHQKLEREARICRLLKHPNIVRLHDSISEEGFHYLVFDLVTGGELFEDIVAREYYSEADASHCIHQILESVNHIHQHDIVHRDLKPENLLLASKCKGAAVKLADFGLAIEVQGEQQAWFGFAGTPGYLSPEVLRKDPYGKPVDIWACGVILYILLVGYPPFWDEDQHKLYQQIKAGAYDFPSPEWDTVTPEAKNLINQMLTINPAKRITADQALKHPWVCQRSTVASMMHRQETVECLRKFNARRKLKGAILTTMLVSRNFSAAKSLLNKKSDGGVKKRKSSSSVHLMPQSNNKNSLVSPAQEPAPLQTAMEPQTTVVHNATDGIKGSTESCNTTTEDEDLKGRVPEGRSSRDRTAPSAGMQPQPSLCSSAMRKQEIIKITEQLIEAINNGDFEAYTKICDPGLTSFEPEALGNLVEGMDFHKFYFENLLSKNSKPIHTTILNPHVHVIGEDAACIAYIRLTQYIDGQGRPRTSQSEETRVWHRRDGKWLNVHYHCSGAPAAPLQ

[8] = molecular target: CDK1 CCNA2 (human) (UniProt P06493+P20248)
[9] = molecular target: CDK2 CCNE1 (human) (UniProt P24941+P24864)
[10] = molecular target: DAPK1 (human) (UniProt P53355)
[11] = molecular target: DAPK3 (human) (UniProt O43293)
[12] = molecular target: EPHA2 (human) (UniProt P29317)
[13] = molecular target: EPHA4 (human) (UniProt P54764)
[14] = molecular target: EPHB3 (human) (UniProt P54753)
[15] = molecular target: EPHB4 (human) (UniProt P54760)
[16] = molecular target: FER (human) (UniProt P16591)
[17] = molecular target: FGFR4 (human) (UniProt P22455)
[18] = test system: FLT4 (human), P35916 [Q890H]
[19] = molecular target: HIPK3 (human) (UniProt Q9H422)
[20] = molecular target: IKBKB (human) (UniProt O14920)
[21] = molecular target: INSR (human) (UniProt P06213)
[22] = molecular target: KIT (human) (UniProt P10721)
KIT (human), sequence (P10721 whole entry, looked up): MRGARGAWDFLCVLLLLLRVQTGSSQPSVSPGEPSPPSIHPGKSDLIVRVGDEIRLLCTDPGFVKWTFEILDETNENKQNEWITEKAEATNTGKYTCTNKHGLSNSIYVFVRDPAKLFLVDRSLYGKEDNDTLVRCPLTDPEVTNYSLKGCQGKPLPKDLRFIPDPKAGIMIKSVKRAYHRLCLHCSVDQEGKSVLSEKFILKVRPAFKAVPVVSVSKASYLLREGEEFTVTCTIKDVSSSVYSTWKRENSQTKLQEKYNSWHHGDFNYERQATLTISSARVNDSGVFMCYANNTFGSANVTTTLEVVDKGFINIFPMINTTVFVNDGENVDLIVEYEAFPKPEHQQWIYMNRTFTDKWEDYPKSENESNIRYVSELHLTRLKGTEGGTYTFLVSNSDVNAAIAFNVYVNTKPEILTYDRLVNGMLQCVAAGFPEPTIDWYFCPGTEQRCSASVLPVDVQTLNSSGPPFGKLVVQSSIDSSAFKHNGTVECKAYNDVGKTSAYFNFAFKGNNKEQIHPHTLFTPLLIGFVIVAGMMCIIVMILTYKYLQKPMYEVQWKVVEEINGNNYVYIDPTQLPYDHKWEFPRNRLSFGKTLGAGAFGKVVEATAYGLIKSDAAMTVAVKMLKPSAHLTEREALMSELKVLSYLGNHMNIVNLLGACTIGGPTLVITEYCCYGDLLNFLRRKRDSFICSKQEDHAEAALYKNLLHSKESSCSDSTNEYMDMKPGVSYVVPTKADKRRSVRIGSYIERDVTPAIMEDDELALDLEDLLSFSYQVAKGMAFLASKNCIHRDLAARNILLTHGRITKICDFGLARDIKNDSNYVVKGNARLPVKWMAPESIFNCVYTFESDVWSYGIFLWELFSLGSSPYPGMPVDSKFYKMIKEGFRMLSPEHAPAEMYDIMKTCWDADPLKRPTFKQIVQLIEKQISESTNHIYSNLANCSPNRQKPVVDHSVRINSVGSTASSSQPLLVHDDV

[23] = molecular target: MAP3K7 TAB1 (human) (UniProt O43318+Q15750)
MAP3K7 TAB1 (human), sequence (O43318 whole entry, looked up): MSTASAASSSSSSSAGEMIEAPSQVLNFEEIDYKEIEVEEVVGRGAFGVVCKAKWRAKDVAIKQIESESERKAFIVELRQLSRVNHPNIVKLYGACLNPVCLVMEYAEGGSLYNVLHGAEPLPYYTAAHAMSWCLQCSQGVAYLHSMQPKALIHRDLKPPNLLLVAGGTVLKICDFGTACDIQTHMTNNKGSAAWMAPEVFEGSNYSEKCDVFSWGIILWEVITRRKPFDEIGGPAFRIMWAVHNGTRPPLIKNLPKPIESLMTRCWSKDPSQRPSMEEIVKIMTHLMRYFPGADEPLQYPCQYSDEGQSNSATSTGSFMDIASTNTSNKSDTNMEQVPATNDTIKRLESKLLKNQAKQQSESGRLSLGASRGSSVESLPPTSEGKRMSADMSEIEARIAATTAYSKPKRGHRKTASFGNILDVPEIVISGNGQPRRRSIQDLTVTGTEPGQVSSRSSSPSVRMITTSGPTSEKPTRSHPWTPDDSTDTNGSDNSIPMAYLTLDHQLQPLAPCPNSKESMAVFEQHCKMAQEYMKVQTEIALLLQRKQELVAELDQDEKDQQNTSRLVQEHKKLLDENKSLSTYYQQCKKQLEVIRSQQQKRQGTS
MAP3K7 TAB1 (human), sequence (Q15750 whole entry, looked up): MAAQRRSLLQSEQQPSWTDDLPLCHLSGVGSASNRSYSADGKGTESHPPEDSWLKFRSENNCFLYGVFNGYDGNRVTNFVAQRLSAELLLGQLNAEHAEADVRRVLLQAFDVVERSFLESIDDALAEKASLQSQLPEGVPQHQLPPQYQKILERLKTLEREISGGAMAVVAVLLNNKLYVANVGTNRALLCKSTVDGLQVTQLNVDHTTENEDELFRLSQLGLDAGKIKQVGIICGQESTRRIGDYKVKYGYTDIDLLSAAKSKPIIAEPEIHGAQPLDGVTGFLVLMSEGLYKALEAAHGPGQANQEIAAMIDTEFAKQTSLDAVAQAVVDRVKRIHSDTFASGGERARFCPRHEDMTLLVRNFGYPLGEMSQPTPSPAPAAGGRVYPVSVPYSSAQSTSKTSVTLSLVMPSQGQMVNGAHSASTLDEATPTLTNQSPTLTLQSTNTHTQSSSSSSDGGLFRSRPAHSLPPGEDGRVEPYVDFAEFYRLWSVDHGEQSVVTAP

[24] = molecular target: MAPK12 (human) (UniProt P53778)
[25] = molecular target: MATK (human) (UniProt P42679)
[26] = molecular target: MST1R (human) (UniProt Q04912)
[27] = molecular target: MYLK (human) (UniProt Q15746)
[28] = molecular target: NEK1 (human) (UniProt Q96PY6)
NEK1 (human), sequence (Q96PY6 whole entry, looked up): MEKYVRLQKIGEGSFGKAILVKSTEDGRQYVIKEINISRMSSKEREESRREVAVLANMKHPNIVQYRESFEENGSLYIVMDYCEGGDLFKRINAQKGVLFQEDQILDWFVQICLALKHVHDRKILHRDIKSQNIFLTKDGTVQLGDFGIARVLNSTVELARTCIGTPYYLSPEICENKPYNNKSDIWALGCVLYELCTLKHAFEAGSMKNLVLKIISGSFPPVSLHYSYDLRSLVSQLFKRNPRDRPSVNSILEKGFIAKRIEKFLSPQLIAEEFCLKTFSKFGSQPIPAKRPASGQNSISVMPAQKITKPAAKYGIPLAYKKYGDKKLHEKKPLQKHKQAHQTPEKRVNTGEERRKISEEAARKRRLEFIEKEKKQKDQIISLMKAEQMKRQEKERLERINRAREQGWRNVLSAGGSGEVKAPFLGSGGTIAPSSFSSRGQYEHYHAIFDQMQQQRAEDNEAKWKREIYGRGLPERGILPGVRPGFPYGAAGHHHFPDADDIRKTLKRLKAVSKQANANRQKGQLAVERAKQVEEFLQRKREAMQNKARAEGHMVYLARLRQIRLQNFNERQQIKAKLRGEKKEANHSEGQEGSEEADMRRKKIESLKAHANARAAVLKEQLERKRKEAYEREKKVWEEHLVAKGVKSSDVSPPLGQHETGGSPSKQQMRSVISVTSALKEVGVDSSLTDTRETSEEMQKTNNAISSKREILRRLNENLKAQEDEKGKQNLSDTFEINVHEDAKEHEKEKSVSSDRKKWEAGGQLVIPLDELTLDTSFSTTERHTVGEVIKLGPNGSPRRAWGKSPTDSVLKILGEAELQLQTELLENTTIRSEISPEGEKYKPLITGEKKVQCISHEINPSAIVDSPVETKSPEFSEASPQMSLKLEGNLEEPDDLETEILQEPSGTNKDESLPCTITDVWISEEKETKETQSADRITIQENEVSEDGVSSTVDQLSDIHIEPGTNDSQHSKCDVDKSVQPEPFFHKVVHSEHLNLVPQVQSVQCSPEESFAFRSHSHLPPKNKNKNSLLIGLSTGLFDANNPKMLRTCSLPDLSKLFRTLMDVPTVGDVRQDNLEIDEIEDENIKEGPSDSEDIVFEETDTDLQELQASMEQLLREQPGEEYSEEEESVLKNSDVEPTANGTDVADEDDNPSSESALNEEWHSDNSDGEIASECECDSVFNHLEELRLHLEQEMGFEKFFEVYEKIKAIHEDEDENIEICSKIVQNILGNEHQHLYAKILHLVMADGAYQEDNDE

[29] = molecular target: NEK4 (human) (UniProt P51957)
NEK4 (human), sequence (P51957 whole entry, looked up): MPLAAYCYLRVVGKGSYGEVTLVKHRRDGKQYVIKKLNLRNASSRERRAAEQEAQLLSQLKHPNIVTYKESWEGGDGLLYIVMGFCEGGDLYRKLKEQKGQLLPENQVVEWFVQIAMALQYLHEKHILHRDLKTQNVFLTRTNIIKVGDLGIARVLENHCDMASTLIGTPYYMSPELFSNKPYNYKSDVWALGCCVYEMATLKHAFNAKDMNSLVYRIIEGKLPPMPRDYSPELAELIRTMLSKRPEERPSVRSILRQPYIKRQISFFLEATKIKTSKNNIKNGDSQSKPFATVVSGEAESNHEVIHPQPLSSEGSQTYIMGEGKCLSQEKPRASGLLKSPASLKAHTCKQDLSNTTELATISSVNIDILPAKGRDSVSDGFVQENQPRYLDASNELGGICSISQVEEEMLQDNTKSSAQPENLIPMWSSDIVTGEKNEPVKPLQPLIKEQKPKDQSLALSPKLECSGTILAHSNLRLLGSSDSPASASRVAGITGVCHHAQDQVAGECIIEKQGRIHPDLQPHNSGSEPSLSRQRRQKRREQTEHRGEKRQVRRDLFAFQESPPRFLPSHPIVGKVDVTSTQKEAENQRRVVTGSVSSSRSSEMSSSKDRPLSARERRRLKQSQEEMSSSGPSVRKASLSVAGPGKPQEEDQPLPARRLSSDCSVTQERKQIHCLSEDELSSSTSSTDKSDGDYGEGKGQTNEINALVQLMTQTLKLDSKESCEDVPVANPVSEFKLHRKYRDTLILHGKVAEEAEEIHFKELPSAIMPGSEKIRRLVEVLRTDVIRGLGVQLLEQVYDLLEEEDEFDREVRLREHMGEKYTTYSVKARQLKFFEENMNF

[30] = molecular target: NTRK1 (human) (UniProt P04629)
[31] = molecular target: PAK1 (human) (UniProt Q13153)
[32] = molecular target: PIM2 (human) (UniProt Q9P1W9)
PIM2 (human), sequence (Q9P1W9 whole entry, looked up): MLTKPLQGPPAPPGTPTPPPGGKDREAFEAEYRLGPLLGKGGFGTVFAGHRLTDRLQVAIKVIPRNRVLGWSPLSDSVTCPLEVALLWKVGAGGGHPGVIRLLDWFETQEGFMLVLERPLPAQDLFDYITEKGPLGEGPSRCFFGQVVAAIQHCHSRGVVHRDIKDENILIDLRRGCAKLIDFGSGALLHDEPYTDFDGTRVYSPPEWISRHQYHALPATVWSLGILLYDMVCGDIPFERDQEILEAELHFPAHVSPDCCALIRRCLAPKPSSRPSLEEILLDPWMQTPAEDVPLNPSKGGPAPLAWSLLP

[33] = molecular target: PRKCG (human) (UniProt P05129)
[34] = molecular target: RET (human) (UniProt P07949)
[35] = molecular target: ROCK2 (human) (UniProt O75116)
[36] = molecular target: RPS6KA3 KD1 KD2 (human) (UniProt P51812)
[37] = molecular target: RPS6KA6 KD1 KD2 (human) (UniProt Q9UK32)
[38] = molecular target: SLK (human) (UniProt Q9H2G2)
[39] = molecular target: STK39 (human) (UniProt Q9UEW8)
[40] = molecular target: TEC (human) (UniProt P42680)
[41] = molecular target: TEK (human) (UniProt Q02763)
[42] = molecular target: ULK1 (human) (UniProt O75385)

Ic1cccc(CSc2nnc(-c3ccncc3)o2)c1
residual activity [1]: 102%
residual activity [2]: 103%
residual activity [3]: 98.6%
residual activity [4]: 103%
residual activity [5]: 99.3%
residual activity [6]: 96.8%
residual activity [7]: 96.8%
residual activity [8]: 99.8%
residual activity [9]: 102%
residual activity [10]: 90.3%
residual activity [11]: 107%
residual activity [12]: 102%
residual activity [13]: 105%
residual activity [14]: 99.7%
residual activity [15]: 101%
residual activity [16]: 101%
residual activity [17]: 97.2%
residual activity [18]: 96.2%
residual activity [19]: 99.1%
residual activity [20]: 89.3%
residual activity [21]: 83.5%
residual activity [22]: 99.8%
residual activity [23]: 102%
residual activity [24]: 93%
residual activity [25]: 94.3%
residual activity [26]: 104%
residual activity [27]: 99.1%
residual activity [28]: 95.5%
residual activity [29]: 93.7%
residual activity [30]: 96%
residual activity [31]: 94.8%
residual activity [32]: 102%
residual activity [33]: 98.7%
residual activity [34]: 103%
residual activity [35]: 89%
residual activity [36]: 96.4%
residual activity [37]: 103%
residual activity [38]: 98.6%
residual activity [39]: 101%
residual activity [40]: 106%
residual activity [41]: 92.6%
residual activity [42]: 97.1%

NC(=O)c1cccc(-c2cc(Nc3ccc(OC(F)(F)F)cc3)ncn2)c1
residual activity [1]: 103%
residual activity [2]: 80.5%
residual activity [4]: 103%
residual activity [5]: 93%
residual activity [6]: 90.8%
residual activity [7]: 102%
residual activity [8]: 103%
residual activity [9]: 86.6%
residual activity [10]: 81.1%
residual activity [11]: 99.8%
residual activity [12]: 94.9%
residual activity [13]: 94.4%
residual activity [14]: 98%
residual activity [15]: 90.6%
residual activity [16]: 105%
residual activity [17]: 92.9%
residual activity [18]: 98.5%
residual activity [19]: 104%
residual activity [20]: 98.6%
residual activity [21]: 105%
residual activity [22]: 100%
residual activity [23]: 99.1%
residual activity [24]: 111%
residual activity [25]: 100%
residual activity [26]: 111%
residual activity [27]: 91.9%
residual activity [28]: 89.6%
residual activity [29]: 98%
residual activity [30]: 96.6%
residual activity [31]: 93.3%
residual activity [32]: 115%
residual activity [33]: 83.6%
residual activity [34]: 105%
residual activity [35]: 98.5%
residual activity [36]: 101%
residual activity [37]: 94.2%
residual activity [38]: 98.2%
residual activity [39]: 85.5%
residual activity [40]: 139%
residual activity [41]: 94.2%
residual activity [42]: 97.5%
